According to ChEMBL document CHEMBL6078681, “Discovery and Optimization of Dihydroquinolin-2(1H)-ones as Novel Highly Selective and Orally Bioavailable Phosphodiesterase 5 Inhibitors for the Treatment of Pulmonary Arterial Hypertension” (J Med Chem, 2024):
Active and inactive are the calls of the source. The rule behind the calls is not given here.

Legend:
[1] = target: T1, cGMP-specific 3',5'-cyclic phosphodiesterase (Homo sapiens, UniProt O76074); assay: Inhibition of PDE5A (unknown origin) using […] as substrate incubated for 1 hr by fluorescence polarization assay
[2] = target: High affinity cAMP-specific and IBMX-insensitive 3',5'-cyclic phosphodiesterase 8A (Homo sapiens, UniProt O60658); assay: Inhibition of PDE8A1 (unknown origin) using FAM-cAMP as substrate incubated for 1 hr by fluorescence polarization assay
Chain of High affinity cAMP-specific and IBMX-insensitive 3',5'-cyclic phosphodiesterase 8A (O60658 whole entry): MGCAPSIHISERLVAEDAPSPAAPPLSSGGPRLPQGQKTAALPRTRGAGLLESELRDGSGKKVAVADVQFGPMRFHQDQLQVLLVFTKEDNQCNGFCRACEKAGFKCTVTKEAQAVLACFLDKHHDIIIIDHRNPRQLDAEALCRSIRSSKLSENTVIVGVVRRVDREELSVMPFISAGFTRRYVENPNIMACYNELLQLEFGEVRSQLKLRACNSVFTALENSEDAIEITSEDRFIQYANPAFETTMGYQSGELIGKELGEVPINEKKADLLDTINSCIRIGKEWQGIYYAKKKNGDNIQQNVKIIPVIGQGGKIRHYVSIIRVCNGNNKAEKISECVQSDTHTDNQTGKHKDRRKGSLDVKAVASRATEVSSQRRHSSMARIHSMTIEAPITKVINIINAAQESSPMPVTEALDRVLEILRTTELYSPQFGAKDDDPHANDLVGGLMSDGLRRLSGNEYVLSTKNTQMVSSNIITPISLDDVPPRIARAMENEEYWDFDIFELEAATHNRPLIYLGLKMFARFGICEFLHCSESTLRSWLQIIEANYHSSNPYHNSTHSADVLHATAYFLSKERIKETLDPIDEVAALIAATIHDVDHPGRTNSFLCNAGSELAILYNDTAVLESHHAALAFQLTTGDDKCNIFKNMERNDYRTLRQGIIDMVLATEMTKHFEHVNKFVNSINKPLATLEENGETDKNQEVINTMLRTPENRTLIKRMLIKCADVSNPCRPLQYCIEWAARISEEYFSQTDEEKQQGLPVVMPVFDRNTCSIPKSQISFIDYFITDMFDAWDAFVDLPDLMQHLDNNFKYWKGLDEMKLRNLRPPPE

[3] = Clearance in Sprague-Dawley rat at 2 mg/kg, iv measured for 5 to 1440 mins by LC-MS/MS analysis; assay type: ADME, organism-based; conditions: in vivo, time 5-1440 min
[4] = target: Voltage-gated inwardly rectifying potassium channel KCNH2 (Homo sapiens, UniProt Q12809); assay: Inhibition of hERG; assay type: toxicity
[5] = target: Cytochrome P450 2C9 (Homo sapiens, UniProt P11712); assay: Inhibition of CYP2C9 (unknown origin); assay type: ADME
Chain of Cytochrome P450 2C9 (P11712 whole entry): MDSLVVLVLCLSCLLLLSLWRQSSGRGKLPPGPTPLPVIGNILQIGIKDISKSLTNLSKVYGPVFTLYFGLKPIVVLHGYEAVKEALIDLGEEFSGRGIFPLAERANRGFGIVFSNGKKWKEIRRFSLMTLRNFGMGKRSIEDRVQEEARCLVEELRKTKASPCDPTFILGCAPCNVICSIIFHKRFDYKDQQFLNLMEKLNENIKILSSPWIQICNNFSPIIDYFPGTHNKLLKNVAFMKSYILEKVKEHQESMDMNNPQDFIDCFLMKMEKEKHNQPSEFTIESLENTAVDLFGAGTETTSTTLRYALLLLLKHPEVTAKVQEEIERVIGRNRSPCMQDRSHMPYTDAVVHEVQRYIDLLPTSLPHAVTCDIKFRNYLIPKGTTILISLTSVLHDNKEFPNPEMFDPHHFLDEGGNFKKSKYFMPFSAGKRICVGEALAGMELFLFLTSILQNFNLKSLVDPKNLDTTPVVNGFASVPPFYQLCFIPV

[6] = Half life in Sprague-Dawley rat at 10 mg/kg, po measured for 5 to 1440 mins by LC-MS/MS analysis; assay type: ADME, organism-based; conditions: in vivo, time 5-1440 min
[7] = Cmax in Sprague-Dawley rat at 2 mg/kg, iv measured for 5 to 1440 mins by LC-MS/MS analysis; assay type: ADME, organism-based; conditions: in vivo, time 5-1440 min
[8] = AUC (0 to infinity) in Sprague-Dawley rat at 10 mg/kg, po measured for 5 to 1440 mins by LC-MS/MS analysis; assay type: ADME, organism-based; conditions: in vivo, time 5-1440 min
[9] = target: cGMP-dependent 3',5'-cyclic phosphodiesterase (Homo sapiens, UniProt O00408); assay: Inhibition of PDE2A (unknown origin) using FAM-cAMP as substrate incubated for 1 hr by fluorescence polarization assay
[10] = Acute toxicity in mouse assessed as drug tolerance at >1.5 g/kg, po; conditions: in vivo, 1500 mg/kg
[11] = AUC (0 to t) in Sprague-Dawley rat at 10 mg/kg, po measured for 5 to 1440 mins by LC-MS/MS analysis; assay type: ADME, organism-based; conditions: in vivo, time 5-1440 min
[12] = Toxicity in mono-crotaline-treated Sprague-Dawley rat model of Pulmonary arterial hypertension assessed as body weight change at 2.5 to 5 mg/kg for 21 days; assay type: organism-based; conditions: in vivo, 504 h, dose 2.5-5 mg/kg, time 21 day
[13] = target: High affinity cGMP-specific 3',5'-cyclic phosphodiesterase 9A (Homo sapiens, UniProt O76083); assay: Inhibition of PDE9A2 (unknown origin) using […] as substrate incubated for 1 hr by fluorescence polarization assay
Chain of High affinity cGMP-specific 3',5'-cyclic phosphodiesterase 9A (O76083 whole entry): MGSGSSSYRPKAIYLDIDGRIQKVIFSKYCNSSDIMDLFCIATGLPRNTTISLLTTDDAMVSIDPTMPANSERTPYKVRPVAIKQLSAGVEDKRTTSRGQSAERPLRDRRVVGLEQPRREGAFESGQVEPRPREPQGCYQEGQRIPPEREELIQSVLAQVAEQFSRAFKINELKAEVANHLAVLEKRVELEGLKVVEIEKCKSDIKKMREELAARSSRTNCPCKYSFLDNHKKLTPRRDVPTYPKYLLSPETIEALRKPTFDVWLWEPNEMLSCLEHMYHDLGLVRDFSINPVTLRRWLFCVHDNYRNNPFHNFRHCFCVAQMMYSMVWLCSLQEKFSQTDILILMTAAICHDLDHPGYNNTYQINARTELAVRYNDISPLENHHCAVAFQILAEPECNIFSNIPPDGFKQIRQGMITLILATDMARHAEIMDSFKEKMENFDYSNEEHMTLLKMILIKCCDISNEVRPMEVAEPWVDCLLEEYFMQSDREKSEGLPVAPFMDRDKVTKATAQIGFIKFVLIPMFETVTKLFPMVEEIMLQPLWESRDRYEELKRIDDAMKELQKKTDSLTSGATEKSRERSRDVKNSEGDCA

[14] = Volume of distribution in Sprague-Dawley rat at 10 mg/kg, po measured for 5 to 1440 mins by LC-MS/MS analysis; assay type: ADME, organism-based; conditions: in vivo, time 5-1440 min
[15] = target: Cytochrome P450 2C19 (Homo sapiens, UniProt P33261); assay: Inhibition of CYP2C19 (unknown origin); assay type: ADME
[16] = MRT (0 to t) in Sprague-Dawley rat at 10 mg/kg, po measured for 5 to 1440 mins by LC-MS/MS analysis; assay type: ADME, organism-based; conditions: in vivo, time 5-1440 min
[17] = AUC (0 to infinity) in Sprague-Dawley rat at 2 mg/kg, iv measured for 5 to 1440 mins by LC-MS/MS analysis; assay type: ADME, organism-based; conditions: in vivo, time 5-1440 min
[18] = MRT (0 to infinity) in Sprague-Dawley rat at 2 mg/kg, iv measured for 5 to 1440 mins by LC-MS/MS analysis; assay type: ADME, organism-based; conditions: in vivo, time 5-1440 min
[19] = target: Dual 3',5'-cyclic-AMP and -GMP phosphodiesterase 11A (Homo sapiens, UniProt Q9HCR9); assay: Inhibition of PDE11A (unknown origin) using FAM-cAMP as substrate incubated for 1 hr by fluorescence polarization assay
Chain of Dual 3',5'-cyclic-AMP and -GMP phosphodiesterase 11A (Q9HCR9 whole entry): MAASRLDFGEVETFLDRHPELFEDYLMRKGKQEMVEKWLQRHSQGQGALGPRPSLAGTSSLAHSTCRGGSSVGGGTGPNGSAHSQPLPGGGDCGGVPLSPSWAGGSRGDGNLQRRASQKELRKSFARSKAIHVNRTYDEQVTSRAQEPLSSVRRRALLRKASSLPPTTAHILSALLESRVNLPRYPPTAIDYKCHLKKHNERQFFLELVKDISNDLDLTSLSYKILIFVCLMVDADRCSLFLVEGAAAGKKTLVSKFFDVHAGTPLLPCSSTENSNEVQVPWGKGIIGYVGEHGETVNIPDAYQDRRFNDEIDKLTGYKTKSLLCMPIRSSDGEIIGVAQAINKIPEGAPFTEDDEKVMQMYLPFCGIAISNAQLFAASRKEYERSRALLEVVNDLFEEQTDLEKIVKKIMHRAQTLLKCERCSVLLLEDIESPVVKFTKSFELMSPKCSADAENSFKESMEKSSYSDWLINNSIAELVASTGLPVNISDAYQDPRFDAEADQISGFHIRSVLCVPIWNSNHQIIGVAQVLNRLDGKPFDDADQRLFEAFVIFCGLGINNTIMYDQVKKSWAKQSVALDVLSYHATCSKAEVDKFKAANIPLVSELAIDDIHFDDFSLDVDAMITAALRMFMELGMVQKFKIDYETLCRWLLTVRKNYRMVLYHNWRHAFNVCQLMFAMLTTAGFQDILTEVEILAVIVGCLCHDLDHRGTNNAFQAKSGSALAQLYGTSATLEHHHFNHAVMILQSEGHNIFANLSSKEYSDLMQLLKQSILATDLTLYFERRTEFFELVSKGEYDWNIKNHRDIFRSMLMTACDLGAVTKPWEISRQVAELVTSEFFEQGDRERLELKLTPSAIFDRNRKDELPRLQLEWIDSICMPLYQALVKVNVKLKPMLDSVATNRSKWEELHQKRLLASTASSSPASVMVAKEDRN

[20] = target: Cone cGMP-specific 3',5'-cyclic phosphodiesterase subunit alpha' (Homo sapiens, UniProt P51160); assay: Inhibition of PDE6C (unknown origin) using […] as substrate incubated for 1 hr by fluorescence polarization assay
[21] = Tmax in Sprague-Dawley rat at 2 mg/kg, iv measured for 5 to 1440 mins by LC-MS/MS analysis; assay type: ADME, organism-based; conditions: in vivo, time 5-1440 min
[22] = Half life in Sprague-Dawley rat at 2 mg/kg, iv measured for 5 to 1440 mins by LC-MS/MS analysis; assay type: ADME, organism-based; conditions: in vivo, time 5-1440 min
[23] = Tmax in Sprague-Dawley rat at 10 mg/kg, po measured for 5 to 1440 mins by LC-MS/MS analysis; assay type: ADME, organism-based; conditions: in vivo, time 5-1440 min
[24] = target: Cytochrome P450 3A4 (Homo sapiens, UniProt P08684); assay: Inhibition of CYP3A4 (unknown origin); assay type: ADME
Chain of Cytochrome P450 3A4 (P08684 whole entry): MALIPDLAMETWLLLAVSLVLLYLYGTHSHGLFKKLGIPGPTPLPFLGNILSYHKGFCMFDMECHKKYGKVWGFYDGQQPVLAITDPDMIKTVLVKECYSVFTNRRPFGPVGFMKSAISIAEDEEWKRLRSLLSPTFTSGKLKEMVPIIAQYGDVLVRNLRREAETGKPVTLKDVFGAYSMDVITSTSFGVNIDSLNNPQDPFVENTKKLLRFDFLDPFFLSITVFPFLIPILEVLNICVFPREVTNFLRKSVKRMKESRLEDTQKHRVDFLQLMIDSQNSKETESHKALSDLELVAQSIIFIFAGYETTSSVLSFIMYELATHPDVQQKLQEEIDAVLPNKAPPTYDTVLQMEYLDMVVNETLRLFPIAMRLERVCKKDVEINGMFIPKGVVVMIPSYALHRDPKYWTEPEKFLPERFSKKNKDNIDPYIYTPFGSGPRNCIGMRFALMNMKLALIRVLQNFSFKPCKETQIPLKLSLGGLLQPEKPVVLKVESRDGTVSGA

[25] = Half life in rat liver microsomes; assay type: ADME, Microsome
[26] = target: cGMP-inhibited 3',5'-cyclic phosphodiesterase 3A (Homo sapiens, UniProt Q14432); assay: Inhibition of PDE3A (unknown origin) using FAM-cAMP as substrate incubated for 1 hr by fluorescence polarization assay
[27] = Oral bioavailability in Sprague-Dawley rat at 10 mg/kg measured for 5 to 1440 mins by LC-MS/MS analysis; assay type: ADME, organism-based; conditions: in vivo, time 5-1440 min
[28] = target: cAMP and cAMP-inhibited cGMP 3',5'-cyclic phosphodiesterase 10A (Homo sapiens, UniProt Q9Y233); assay: Inhibition of PDE10A2 (unknown origin) using FAM-cAMP as substrate incubated for 1 hr by fluorescence polarization assay
[29] = system: Rattus norvegicus; assay: Anti-Pulmonary arterial hypertension in mono-crotaline-treated Sprague-Dawley rat model assessed as decrease in RVHI level at 2.5 to 5 mg/kg for 21 days; assay type: functional, organism-based; conditions: dose 2.5-5 mg/kg, time 21.0 day
[30] = target: T2, Cytochrome P450 1A2 (Homo sapiens, UniProt P05177); assay: Inhibition of CYP1A2 (unknown origin); assay type: ADME
T2 sequence (P05177 whole entry): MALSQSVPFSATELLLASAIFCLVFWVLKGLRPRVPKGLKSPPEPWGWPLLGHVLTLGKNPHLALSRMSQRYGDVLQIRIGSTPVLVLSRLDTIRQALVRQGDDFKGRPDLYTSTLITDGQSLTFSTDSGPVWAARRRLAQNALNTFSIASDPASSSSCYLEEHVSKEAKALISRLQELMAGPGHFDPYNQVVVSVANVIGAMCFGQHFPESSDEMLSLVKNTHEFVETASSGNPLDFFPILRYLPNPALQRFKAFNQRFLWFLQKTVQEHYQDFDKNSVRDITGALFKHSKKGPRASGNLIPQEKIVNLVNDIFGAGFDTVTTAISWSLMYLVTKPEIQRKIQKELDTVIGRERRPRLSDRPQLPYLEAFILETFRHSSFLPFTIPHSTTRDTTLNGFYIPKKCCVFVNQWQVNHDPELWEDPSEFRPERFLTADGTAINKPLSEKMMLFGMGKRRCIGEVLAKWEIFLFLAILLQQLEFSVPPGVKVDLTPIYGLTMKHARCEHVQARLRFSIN

[31] = AUC (0 to t) in Sprague-Dawley rat at 2 mg/kg, iv measured for 5 to 1440 mins by LC-MS/MS analysis; assay type: ADME, organism-based; conditions: in vivo, time 5-1440 min
[32] = Clearance in Sprague-Dawley rat at 10 mg/kg, po measured for 5 to 1440 mins by LC-MS/MS analysis; assay type: ADME, organism-based; conditions: in vivo, time 5-1440 min
[33] = target: Dual specificity calcium/calmodulin-dependent 3',5'-cyclic nucleotide phosphodiesterase 1C (Homo sapiens, UniProt Q14123); assay: Inhibition of PDE1C (unknown origin) using FAM-cAMP as substrate incubated for 1 hr by fluorescence polarization assay
Chain of Dual specificity calcium/calmodulin-dependent 3',5'-cyclic nucleotide phosphodiesterase 1C (Q14123 whole entry): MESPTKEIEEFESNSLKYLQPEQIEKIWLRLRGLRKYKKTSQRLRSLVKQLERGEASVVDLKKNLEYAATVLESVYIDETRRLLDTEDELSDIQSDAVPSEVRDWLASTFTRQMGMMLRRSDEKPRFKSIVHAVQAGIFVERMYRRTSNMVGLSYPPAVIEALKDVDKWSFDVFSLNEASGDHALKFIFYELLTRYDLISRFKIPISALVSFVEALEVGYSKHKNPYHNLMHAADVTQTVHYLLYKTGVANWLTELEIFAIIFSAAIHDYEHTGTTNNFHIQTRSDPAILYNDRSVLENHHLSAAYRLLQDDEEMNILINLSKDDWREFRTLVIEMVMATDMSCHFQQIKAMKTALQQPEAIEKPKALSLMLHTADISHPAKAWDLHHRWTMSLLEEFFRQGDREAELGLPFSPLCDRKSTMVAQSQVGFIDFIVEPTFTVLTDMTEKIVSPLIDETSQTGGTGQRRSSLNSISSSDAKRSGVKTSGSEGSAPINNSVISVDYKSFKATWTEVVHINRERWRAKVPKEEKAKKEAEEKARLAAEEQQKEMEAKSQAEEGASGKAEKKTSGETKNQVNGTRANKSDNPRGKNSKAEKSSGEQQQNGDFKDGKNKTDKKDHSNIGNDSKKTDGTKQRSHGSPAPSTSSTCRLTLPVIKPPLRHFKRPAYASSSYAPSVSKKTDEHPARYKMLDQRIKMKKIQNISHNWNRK

[34] = target: Cytochrome P450 2D6 (Homo sapiens, UniProt P10635); assay: Inhibition of CYP2D6 (unknown origin); assay type: ADME
Chain of Cytochrome P450 2D6 (P10635 whole entry): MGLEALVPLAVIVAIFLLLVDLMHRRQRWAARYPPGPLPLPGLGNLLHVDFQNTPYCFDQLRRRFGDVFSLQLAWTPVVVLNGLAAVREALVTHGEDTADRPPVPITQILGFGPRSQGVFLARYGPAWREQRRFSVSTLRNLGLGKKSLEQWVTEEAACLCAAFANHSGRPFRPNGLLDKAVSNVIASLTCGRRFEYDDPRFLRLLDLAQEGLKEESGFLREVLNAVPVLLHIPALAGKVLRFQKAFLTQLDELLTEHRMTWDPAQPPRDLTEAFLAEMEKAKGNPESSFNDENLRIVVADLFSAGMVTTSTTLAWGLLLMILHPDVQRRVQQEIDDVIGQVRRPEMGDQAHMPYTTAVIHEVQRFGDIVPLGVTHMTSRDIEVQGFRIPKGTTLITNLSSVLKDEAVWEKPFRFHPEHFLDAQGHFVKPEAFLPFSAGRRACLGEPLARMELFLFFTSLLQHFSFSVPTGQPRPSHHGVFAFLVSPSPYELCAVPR

[35] = MRT (0 to infinity) in Sprague-Dawley rat at 10 mg/kg, po measured for 5 to 1440 mins by LC-MS/MS analysis; assay type: ADME, organism-based; conditions: in vivo, time 5-1440 min
[36] = MRT (0 to t) in Sprague-Dawley rat at 2 mg/kg, iv measured for 5 to 1440 mins by LC-MS/MS analysis; assay type: ADME, organism-based; conditions: in vivo, time 5-1440 min
[37] = Apparent volume of distribution in Sprague-Dawley rat at 2 mg/kg, iv measured for 5 to 1440 mins by LC-MS/MS analysis; assay type: ADME, organism-based; conditions: in vivo, time 5-1440 min, read-out: Vz
[38] = target: 3',5'-cyclic-AMP phosphodiesterase 4D (Homo sapiens, UniProt Q08499); assay: Inhibition of PDE4D2 (unknown origin) using FAM-cAMP as substrate incubated for 1 hr by fluorescence polarization assay
[39] = system: Rattus norvegicus; assay: Anti-Pulmonary arterial hypertension in mono-crotaline-treated Sprague-Dawley rat model assessed as decrease in mPAP level at 5 mg/kg for 21 days; assay type: functional, organism-based; conditions: time 21.0 day
[40] = system: Rattus norvegicus; assay: Anti-Pulmonary arterial hypertension in mono-crotaline-treated Sprague-Dawley rat model assessed as decrease in mPAP level at 2.5 mg/kg for 21 days; assay type: functional, organism-based; conditions: time 21.0 day
[41] = system: Rattus norvegicus; assay: Anti-Pulmonary arterial hypertension in mono-crotaline-treated Sprague-Dawley rat model assessed as decrease in pulmonary arteriole wall thickness at 2.5 to 5 mg/kg for 21 days by H and E staining based analysis; assay type: functional, organism-based; conditions: dose 2.5-5 mg/kg, time 21.0 day
[42] = Cmax in Sprague-Dawley rat at 10 mg/kg, po measured for 5 to 1440 mins by LC-MS/MS analysis; assay type: ADME, organism-based; conditions: in vivo, time 5-1440 min
[43] = target: High affinity 3',5'-cyclic-AMP phosphodiesterase 7A (Homo sapiens, UniProt Q13946); assay: Inhibition of PDE7A (unknown origin) using FAM-cAMP as substrate incubated for 1 hr by fluorescence polarization assay
Chain of High affinity 3',5'-cyclic-AMP phosphodiesterase 7A (Q13946 whole entry): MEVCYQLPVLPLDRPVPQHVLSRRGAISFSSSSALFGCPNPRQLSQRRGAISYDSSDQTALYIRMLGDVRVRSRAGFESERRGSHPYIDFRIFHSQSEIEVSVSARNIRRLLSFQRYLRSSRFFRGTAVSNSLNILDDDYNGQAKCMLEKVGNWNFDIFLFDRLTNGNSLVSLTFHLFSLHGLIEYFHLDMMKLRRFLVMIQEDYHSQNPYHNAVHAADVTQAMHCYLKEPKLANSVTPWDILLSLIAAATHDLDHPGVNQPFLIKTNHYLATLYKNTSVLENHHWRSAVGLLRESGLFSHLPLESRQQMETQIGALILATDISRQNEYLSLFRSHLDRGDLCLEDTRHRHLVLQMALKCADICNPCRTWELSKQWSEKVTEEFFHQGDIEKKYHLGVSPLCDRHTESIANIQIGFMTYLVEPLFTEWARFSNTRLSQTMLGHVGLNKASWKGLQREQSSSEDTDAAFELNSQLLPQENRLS

[44] = target: T1, cGMP-specific 3',5'-cyclic phosphodiesterase; assay: Inhibition of PDE5A (unknown origin) using […] as substrate at 1000 nM incubated for 1 hr by fluorescence polarization assay relative to control

With COc1ccc(-c2c(C#N)c(=O)n(Cc3ccccc3)c3c(NC(C)c4ccccn4)cccc23)cc1 (stereo unspecified) the IC50 [1] was 0.005 µM.

COc1ccc(-c2c(C#N)c(=O)n(Cc3ccccc3)c3c(N[C@H](C)c4ccccn4)cccc23)cc1 gave an IC50 [2] of over 100 µM, a clearance [3] of 83.3 mL/min/kg and an IC50 [4] of over 30 µM. It also gave an IC50 [5] of 9.76 µM, a half-life [6] of 2.79 h and a Cmax [7] of 985 ng/mL. For the same compound, the AUC(0-inf) [8] was 340 ng·h/mL, the IC50 [9] was 3.38 µM and the Activity [10] was “Non-toxic”. The AUC(0-t) [11] was 339 ng·h/mL, the Activity [12] was “Non-toxic” and the IC50 [13] was over 100 µM. The Vz [14] was 126.6 L/kg, the IC50 [15] was 4.63 µM and the MRT last [16] was 6.3 h. The AUC(0-inf) [17] was 399 ng·h/mL, the MRT inf [18] was 0.76 h and the IC50 [19] was over 100 µM. It also gave an IC50 [20] of 0.02 µM, a Tmax [21] of 4.98 min and a half-life [22] of 2.25 h. For the same compound, the Tmax [23] was 4 h, the IC50 [24] was over 50 µM and the half-life [25] was 4.41 min. For the same compound, the IC50 [26] was over 100 µM, the bioavailability [27] was 16.8% and the IC50 [28] was 21.2 µM. For the same compound, the Activity [29] was “Active”, the IC50 [30] was over 50 µM and the AUC(0-t) [31] was 399 ng·h/mL. The CL/F [32] was 525 mL/min/kg, the IC50 [33] was 10.5 µM and the IC50 [34] was over 50 µM. It also gave an MRT inf [35] of 6.4 h, an MRT last [36] of 0.75 h and a Vd [37] of 16.3 L/kg. For the same compound, the IC50 [1] was 0.003 µM, the IC50 [38] was 53.3 µM and the Activity [39] was “Active; The Effect Was Marginally Superior To That Of Sildenafil”. For the same compound, the Activity [40] was “inactive”, the Activity [41] was “Active” and the Cmax [42] was 58.4 ng/mL. For the same compound, the IC50 [43] was 25.7 µM.

For Cc1ccc(-c2c(C#N)c(=O)n(CC3CC3)c3c(NC(C)c4ccccn4)cccc23)cc1 (stereo unspecified), the inhibition [44] was 35%.

With Cc1ccc(-c2c(C#N)c(=O)n(Cc3ccccc3)c3ccc(NC(C)c4ccccn4)cc23)cc1 (stereo unspecified) the IC50 [1] was 0.291 µM.

Cc1ccc(-c2c(C#N)c(=O)n(Cc3ccc4c(c3)OCO4)c3c(NC(C)c4ccccn4)cccc23)cc1 (stereo unspecified) showed an IC50 [1] of 0.198 µM.

Work on CC(C)c1c(C#N)c(=O)n(Cc2ccccc2)c2c(NC(C)c3ccccn3)cccc12 (stereo unspecified) yielded an IC50 [1] of 0.039 µM.

Cc1ccc(-c2c(C#N)c(=O)n(Cc3ccccc3)c3c(NC(C)c4ccccc4)cccc23)cc1 (stereo unspecified) gave an IC50 [1] of 0.011 µM.

Compound Cc1ccc(-c2c(C#N)c(=O)n(Cc3ccncc3)c3c(N[C@H](C)c4ccccn4)cccc23)cc1 has an IC50 [1] of 0.073 µM.

CCCCNc1cccc2c(-c3ccc(C)cc3)c(C#N)c(=O)n(Cc3ccccc3)c12 showed an IC50 [1] of 0.03 µM.
